Data on four compounds can be found in paper PMC6789782, “Safety Pharmacological Evaluation of the Coffee Component, Caffeoylquinic Acid, and Its Metabolites, Using Ex Vivo and In Vitro Profiling Assays” (Pharmaceuticals, 2019).

The target in test [1] is Cannabinoid CB1 (Homo sapiens, UniProt P21554). The test can be described thus: In vitro profiling, binding assay. How it is done: (§1) Binding and functional assays of CGAs with the proteins known to be pharmacological targets related to the CVS, CNS, and GI functions were conducted. […] In the binding assay, we measured the radiation activity of the solution containing filtered proteins that bound to the tested compound or high-affinity ligand, while in the functional assays, we measured the reaction product. The ability of the test compound to interact with the tested targets was measured as the inhibition of ligand binding to the target or reaction product production (% inhibition).

Test [2] addresses T1, 5-HT1A (Homo sapiens, UniProt P08908).
T1 sequence (P08908 1-422): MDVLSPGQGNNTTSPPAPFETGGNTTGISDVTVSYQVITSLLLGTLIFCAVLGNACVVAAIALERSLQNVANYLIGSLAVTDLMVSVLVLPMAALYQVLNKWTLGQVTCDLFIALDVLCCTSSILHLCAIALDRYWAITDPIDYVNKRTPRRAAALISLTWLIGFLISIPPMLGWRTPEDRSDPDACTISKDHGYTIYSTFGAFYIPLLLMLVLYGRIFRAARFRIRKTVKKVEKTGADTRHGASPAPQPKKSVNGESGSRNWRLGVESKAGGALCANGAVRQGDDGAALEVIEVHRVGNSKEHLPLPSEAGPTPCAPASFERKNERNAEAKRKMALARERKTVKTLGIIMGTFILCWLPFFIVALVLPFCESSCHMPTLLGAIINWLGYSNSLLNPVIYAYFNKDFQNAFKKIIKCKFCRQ
The test can be described thus: In vitro profiling, binding assay. How it is done:
as §1

The target of test [3] is Adrenergic β1 (Homo sapiens, UniProt P08588). The test can be described thus: In vitro profiling, binding assay. How it is done: as §1
Test [4] has as its target Adrenergic β2 (Homo sapiens, UniProt P07550). The test can be described thus: In vitro profiling, binding assay. How it is done:
as §1

Test [5] deals with T2, Muscarinic M2 (Homo sapiens, UniProt P08172).
T2 sequence (P08172 1-466): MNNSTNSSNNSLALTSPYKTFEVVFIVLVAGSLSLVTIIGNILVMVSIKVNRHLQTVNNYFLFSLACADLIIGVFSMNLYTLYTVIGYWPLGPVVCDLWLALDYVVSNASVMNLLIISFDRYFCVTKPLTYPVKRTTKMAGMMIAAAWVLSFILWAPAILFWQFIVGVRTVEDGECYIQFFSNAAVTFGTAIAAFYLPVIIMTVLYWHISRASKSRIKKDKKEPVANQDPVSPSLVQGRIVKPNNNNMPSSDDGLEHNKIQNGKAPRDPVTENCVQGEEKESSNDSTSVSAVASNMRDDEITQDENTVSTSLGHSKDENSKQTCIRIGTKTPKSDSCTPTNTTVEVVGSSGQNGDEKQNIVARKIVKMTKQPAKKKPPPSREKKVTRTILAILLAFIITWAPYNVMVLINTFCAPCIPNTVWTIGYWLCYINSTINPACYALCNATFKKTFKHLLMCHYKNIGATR
The test can be described thus: In vitro profiling, binding assay. How it is done: as §1

Test [6] has as its target T3, Peptidase, CTSG (Cathepsin G) (Homo sapiens, UniProt P08311).
T3 sequence (P08311 21-255): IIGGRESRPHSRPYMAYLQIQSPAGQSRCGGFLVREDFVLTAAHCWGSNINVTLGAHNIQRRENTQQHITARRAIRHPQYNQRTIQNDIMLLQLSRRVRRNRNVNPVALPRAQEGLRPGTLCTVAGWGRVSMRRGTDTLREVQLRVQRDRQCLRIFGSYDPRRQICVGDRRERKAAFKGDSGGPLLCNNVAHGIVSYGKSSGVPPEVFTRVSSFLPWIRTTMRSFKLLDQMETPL
The test can be described thus: In vitro profiling, functional assay. It counts as biochemical. How it is done: as §1

Test [7] addresses T4, Monoamine Oxidase MAO-A (Homo sapiens, UniProt P21397).
T4 sequence (P21397 1-527): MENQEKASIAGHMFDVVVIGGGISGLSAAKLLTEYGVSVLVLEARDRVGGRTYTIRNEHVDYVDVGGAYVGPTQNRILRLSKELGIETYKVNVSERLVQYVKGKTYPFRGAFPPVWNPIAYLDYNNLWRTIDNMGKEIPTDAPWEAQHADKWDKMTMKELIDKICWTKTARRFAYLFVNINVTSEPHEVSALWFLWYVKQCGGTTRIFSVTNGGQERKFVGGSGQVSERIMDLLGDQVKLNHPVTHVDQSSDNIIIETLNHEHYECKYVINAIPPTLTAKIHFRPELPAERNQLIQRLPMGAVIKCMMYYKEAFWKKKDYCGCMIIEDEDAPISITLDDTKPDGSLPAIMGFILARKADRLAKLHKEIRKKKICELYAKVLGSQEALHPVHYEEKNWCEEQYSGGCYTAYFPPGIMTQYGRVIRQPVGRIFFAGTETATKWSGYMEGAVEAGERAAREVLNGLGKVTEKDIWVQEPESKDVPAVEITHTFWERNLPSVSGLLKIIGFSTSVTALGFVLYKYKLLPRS
The test can be described thus: In vitro profiling, functional assay. It counts as biochemical. How it is done:
as §1

Test [8] addresses T5, Cyclooxygenase COX-2 (Homo sapiens, UniProt P35354).
T5 sequence (P35354 18-604): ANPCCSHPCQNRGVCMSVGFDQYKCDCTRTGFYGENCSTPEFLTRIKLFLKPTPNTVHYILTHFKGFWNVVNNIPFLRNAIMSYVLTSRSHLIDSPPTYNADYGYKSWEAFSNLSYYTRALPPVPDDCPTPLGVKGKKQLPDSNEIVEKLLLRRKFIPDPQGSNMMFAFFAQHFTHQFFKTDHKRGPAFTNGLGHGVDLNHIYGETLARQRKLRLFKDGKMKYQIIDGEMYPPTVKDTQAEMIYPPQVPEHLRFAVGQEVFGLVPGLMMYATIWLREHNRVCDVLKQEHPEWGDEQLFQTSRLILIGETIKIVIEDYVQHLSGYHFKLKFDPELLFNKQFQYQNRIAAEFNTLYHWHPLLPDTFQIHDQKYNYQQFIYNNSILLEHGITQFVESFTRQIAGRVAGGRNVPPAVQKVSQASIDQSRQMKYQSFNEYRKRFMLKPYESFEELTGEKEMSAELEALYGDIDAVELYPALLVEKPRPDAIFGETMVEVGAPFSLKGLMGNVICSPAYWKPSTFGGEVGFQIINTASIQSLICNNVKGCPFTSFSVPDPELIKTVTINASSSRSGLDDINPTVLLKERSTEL
The test can be described thus: In vitro profiling, functional assay. It counts as biochemical. How it is done:
as §1

The target of test [9] is Cyclooxygenase COX-1 (Homo sapiens, UniProt P23219). The test can be described thus: In vitro profiling, functional assay. It counts as biochemical. How it is done: as §1
Where [10] appears, read: 30 µM, Cannabinoid CB1, read-out: % Inhibition.
[11] abbreviates: 30 µM, 5-HT1A, read-out: % Inhibition.
[12] abbreviates: 30 µM, Adrenergic β1, read-out: % Inhibition.
Setting [13] is: 30 µM, Adrenergic β2, read-out: % Inhibition.
Where [14] appears, read: 30 µM, Muscarinic M2, read-out: % Inhibition.
Where [15] appears, read: 30 µM, Peptidase, CTSG (Cathepsin G), read-out: % Inhibition.
Where [16] appears, read: 30 µM, Monoamine Oxidase MAO-A, read-out: % Inhibition.
[17] abbreviates: 30 µM, Cyclooxygenase COX-1, read-out: % Inhibition.

Where two headings read alike, the source gives them in different places.

Sequence of Adrenergic β2 (P07550 whole entry): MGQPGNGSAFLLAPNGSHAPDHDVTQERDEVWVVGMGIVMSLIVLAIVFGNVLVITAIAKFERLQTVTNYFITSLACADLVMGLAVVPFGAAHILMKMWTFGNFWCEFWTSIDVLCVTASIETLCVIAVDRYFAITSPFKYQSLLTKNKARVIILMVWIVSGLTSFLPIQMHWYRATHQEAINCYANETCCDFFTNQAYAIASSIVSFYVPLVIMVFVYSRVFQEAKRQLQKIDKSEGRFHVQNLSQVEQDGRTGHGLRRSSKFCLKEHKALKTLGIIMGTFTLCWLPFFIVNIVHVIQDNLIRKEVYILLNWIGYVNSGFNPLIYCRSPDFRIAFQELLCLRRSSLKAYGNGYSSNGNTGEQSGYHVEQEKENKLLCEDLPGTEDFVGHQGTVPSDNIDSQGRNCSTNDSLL
Sequence of Cyclooxygenase COX-1 (P23219 24-599): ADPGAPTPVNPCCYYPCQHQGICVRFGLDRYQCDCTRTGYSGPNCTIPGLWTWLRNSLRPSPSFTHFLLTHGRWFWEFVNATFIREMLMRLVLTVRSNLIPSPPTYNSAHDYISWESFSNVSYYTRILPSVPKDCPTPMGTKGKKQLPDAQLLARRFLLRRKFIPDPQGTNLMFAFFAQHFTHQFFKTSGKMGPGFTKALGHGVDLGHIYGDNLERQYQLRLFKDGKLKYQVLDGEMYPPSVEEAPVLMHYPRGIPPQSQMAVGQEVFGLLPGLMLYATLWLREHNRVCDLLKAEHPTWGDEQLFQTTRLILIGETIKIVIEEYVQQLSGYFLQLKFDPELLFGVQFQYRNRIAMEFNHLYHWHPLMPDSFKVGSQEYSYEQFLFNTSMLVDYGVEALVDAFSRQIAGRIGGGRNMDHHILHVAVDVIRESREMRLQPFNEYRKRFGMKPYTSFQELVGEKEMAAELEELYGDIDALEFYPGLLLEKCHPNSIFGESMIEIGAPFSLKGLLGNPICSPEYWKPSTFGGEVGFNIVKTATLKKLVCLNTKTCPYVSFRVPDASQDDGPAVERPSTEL
Sequence of Adrenergic β1 (P08588 whole entry): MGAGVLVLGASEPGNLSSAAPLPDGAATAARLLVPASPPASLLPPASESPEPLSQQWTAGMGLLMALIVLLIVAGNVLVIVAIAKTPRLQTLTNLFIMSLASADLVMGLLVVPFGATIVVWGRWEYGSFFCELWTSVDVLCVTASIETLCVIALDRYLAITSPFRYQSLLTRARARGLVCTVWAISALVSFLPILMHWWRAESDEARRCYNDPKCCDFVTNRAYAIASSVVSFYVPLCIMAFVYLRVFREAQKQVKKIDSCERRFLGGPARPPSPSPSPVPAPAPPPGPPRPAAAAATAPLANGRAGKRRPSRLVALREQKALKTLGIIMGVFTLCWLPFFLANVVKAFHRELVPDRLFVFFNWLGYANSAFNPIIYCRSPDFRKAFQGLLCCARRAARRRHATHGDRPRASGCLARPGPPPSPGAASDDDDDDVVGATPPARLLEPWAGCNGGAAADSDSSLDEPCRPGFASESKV
Sequence of Cannabinoid CB1 (P21554 whole entry): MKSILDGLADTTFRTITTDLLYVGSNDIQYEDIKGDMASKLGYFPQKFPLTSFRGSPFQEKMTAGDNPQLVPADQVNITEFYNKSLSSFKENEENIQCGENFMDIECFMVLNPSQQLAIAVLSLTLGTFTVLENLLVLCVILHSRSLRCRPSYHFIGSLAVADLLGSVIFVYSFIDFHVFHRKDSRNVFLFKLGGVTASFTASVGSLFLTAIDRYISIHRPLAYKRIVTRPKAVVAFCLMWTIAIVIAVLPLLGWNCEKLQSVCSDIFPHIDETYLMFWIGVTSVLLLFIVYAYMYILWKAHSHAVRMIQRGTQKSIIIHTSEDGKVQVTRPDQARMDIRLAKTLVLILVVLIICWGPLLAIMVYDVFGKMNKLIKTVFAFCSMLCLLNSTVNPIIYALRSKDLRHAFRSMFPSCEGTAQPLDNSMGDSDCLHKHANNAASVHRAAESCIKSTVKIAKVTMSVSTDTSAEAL

Consider `O=C(/C=C/c1ccc(O)c(O)c1)O[C@H]1C[C@@](O)(C(=O)O)C[C@H](O)[C@@H]1O` [5-CQA, 5-O-caffeoylquinic acid], for which the inhibition at 30 µM in test [1] (setting [10]) was -6%; in test [2] (setting [11]) it was 12%; in [3] (setting [12]) it was -1%; in test [4] (setting [13]) it was 1%; in test [5] (setting [14]), -1%; in test [6] (setting [15]) it was 8%. The results for the inhibition at 30 µM in test [7] (setting [16]), in [8] and in [9] (setting [17]) were -5%, 7% and 2%, respectively.

Turning to `COc1cc(/C=C/C(=O)O[C@H]2C[C@@](O)(C(=O)O)C[C@H](O)[C@@H]2O)ccc1O` [5-FQA, 5-O-feruloylquinic acid], the inhibition at 30 µM is -6% in test [1] (setting [10]); 11% in test [2] (setting [11]); -4% in test [3] (setting [12]); 6% in test [4] (setting [13]); 7% in test [5] (setting [14]); 2% in test [6] (setting [15]). Moreover, the inhibition at 30 µM turned out to be 0% in test [7] (setting [16]); 18% in test [8] (30 µM, Cyclooxygenase COX-2, read-out: % Inhibition); 11% in test [9] (setting [17]).

`O=C(O)/C=C/c1ccc(O)c(O)c1` [CA, caffeic acid]: the “% Inhibition” value in test [1] (30 µM, Cannabinoid CB1) is −9%; in test [2] (30 µM, 5-HT1A), 9%; in [3] (30 µM, Adrenergic β1) it was 3%; in [4] (30 µM, Adrenergic β2), 2%; in test [5] (30 µM, Muscarinic M2), 23%; in test [6] (30 µM, Peptidase, CTSG (Cathepsin G)) it was 1%. Moreover, the inhibition at 30 µM in [7] was determined as 0%; in [8], 9%; in [9], 6%.

As to `COc1cc(/C=C/C(=O)O)ccc1O` [FA, ferulic acid], the inhibition at 30 µM is -15% in test [1]; 2% in [2]; -2% in test [3]; 2% in test [4]; 17% in test [5]; -2% in test [6]. In addition, the inhibition at 30 µM in test [7] was determined as 5%; in test [8] it was 14%; in test [9], 5%.
